Test systems include CCRF-CEM leukemia; PC-3 prostate; HCT-116 colon; MOLT-4 leukemia; HS 578T breast; SNB-75 CNS; HOP-62 NSCLC; SK-MEL-2 melanoma; DU-145 prostate.
Common to all, as to assay: NCI tumour cell line growth inhibition, 48 h

The text below walks through data of PubChem BioAssay (NCI).

Structures are written as SMILES.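 Interpolation was linear, between the two tested concentrations surrounding the appropriate level; five concentrations were tested over 48 hours in 96-well plates. Definition used: TGI = concentration required for complete inhibition of growth.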 A value given as a limit tells only on which side of the number the result lay.

Consider `Cc1cc(C)nc(NS(=O)(=O)c2ccc(NC(=O)c3ccc4nc5ccccc5c(Nc5ccc(S(=O)(=O)Nc6nc(C)cc(C)n6)cc5)c4c3)cc2)n1`, for which the TGI was > 100 µM in the experiment with CCRF-CEM leukemia; > 100 µM with PC-3 prostate; > 100 µM in the experiment with HCT-116 colon; 78.1 µM with MOLT-4 leukemia; > 100 µM with HS 578T breast; > 100 µM in the experiment with SNB-75 CNS. Besides, the TGI in the experiment with HOP-62 NSCLC, in the experiment with SK-MEL-2 melanoma and in the experiment with DU-145 prostate was > 100 µM each time.

Turning to `CC(C)[Si](OC1=CCC[C@H]2NC(=O)[C@@H](Cc3ccc([N+](=O)[O-])cc3)[C@@]12C)(C(C)C)C(C)C`, the TGI is 8.19 µM with CCRF-CEM leukemia; 12 µM in the experiment with PC-3 prostate; 12.7 µM with HCT-116 colon; > 100 µM in the experiment on MOLT-4 leukemia; 25.1 µM with HS 578T breast; 23.8 µM in the experiment on SNB-75 CNS. Besides, the TGI turned out to be 17.3 µM in the experiment on HOP-62 NSCLC, 28 µM in the experiment with SK-MEL-2 melanoma and 21.3 µM in the experiment with DU-145 prostate.

For the compound `CCN(CC)c1ccc2cc(-c3csc(-c4ccc(N(C)C)cc4)n3)c(=O)oc2c1`, the TGI in the experiment on CCRF-CEM leukemia, in the experiment on PC-3 prostate, in the experiment on HCT-116 colon, in the experiment with MOLT-4 leukemia, in the experiment with HS 578T breast and in the experiment with SNB-75 CNS was > 100 µM in each case. For the same compound, the TGI in the experiment with HOP-62 NSCLC, in the experiment on SK-MEL-2 melanoma and in the experiment on DU-145 prostate was > 100 µM throughout.

In the case of `COc1cccc(-c2cc(=O)c3cc(N4CCCC4)ccc3[nH]2)c1`, the TGI with CCRF-CEM leukemia was > 10 µM; with PC-3 prostate it was > 10 µM; with HCT-116 colon, 0.0348 µM; in the experiment on MOLT-4 leukemia, > 10 µM; with HS 578T breast, > 10 µM; in the experiment on SNB-75 CNS it was > 10 µM. The TGI in the experiment with HOP-62 NSCLC is > 10 µM; in the experiment on DU-145 prostate, < 0.001 µM.

Turning to `CCOC(=O)C(C(=O)OCC)C(NC(=O)Nc1cc(C(F)(F)F)ccc1OC)(C(F)(F)F)C(F)(F)F`, the TGI in the experiment with CCRF-CEM leukemia was 70.9 µM; with PC-3 prostate, > 100 µM; in the experiment with HCT-116 colon, > 100 µM; in the experiment with MOLT-4 leukemia, 68.6 µM; with HS 578T breast, > 100 µM; in the experiment with HOP-62 NSCLC, 56.6 µM. Besides, in the experiment with DU-145 prostate, the TGI was > 100 µM.

For the compound `NNC(=O)CSc1nnc(CCCCCCCCc2nnc(SCC(=O)NN)o2)o1`, the TGI with CCRF-CEM leukemia, with PC-3 prostate, in the experiment on HCT-116 colon, with MOLT-4 leukemia, in the experiment on HS 578T breast and in the experiment on SNB-75 CNS was > 100 µM throughout. For the same compound, the TGI in the experiment with HOP-62 NSCLC, in the experiment with SK-MEL-2 melanoma and with DU-145 prostate was > 100 µM each time.

In the case of `C/C(CC(O)(C(F)(F)F)C(F)(F)F)=N/Nc1ccc([N+](=O)[O-])cc1[N+](=O)[O-]`, the TGI was > 10 µM in the experiment on CCRF-CEM leukemia; > 10 µM with PC-3 prostate; 4.56 µM in the experiment with HCT-116 colon; > 10 µM with MOLT-4 leukemia; 7.85 µM in the experiment with HS 578T breast; > 10 µM in the experiment on SNB-75 CNS. In addition, the TGI in the experiment on HOP-62 NSCLC is 9.15 µM; in the experiment on SK-MEL-2 melanoma, 6.11 µM; in the experiment on DU-145 prostate it was > 10 µM.

Regarding `O=c1[nH]c(=S)c2[nH]c(=O)n(-c3ccccc3)c2[nH]1`, the TGI in the experiment on PC-3 prostate, with HCT-116 colon, in the experiment on MOLT-4 leukemia, in the experiment with HS 578T breast, in the experiment with HOP-62 NSCLC and with SK-MEL-2 melanoma was > 100 µM in each case. Besides, the TGI with DU-145 prostate was > 100 µM.

As to `COc1cc(OC)cc(Oc2nc3c(N)cc(C(F)(F)F)cc3nc2-c2ccccc2)c1`, the TGI with CCRF-CEM leukemia was > 100 µM; in the experiment on PC-3 prostate it was > 100 µM; in the experiment with HCT-116 colon it was > 100 µM; in the experiment with MOLT-4 leukemia, 81.1 µM; in the experiment with HS 578T breast it was > 100 µM; in the experiment on SNB-75 CNS it was > 100 µM. Further, the TGI in the experiment with HOP-62 NSCLC was > 100 µM; in the experiment on SK-MEL-2 melanoma it was 55.5 µM.

Consider `S=c1sscc1N1CCSc2ssc(=S)c21`, for which the TGI is > 100 µM in the experiment on CCRF-CEM leukemia; > 100 µM with PC-3 prostate; > 100 µM in the experiment with HCT-116 colon; > 100 µM in the experiment on MOLT-4 leukemia; > 100 µM in the experiment with HS 578T breast; 43.5 µM in the experiment with SNB-75 CNS. Besides, the TGI was > 100 µM with SK-MEL-2 melanoma and 81.6 µM in the experiment with DU-145 prostate.

Turning to `CCCC(=O)OC1=C(c2ccccc2)Sc2ccccc2-n2cccc21`, the TGI in the experiment with CCRF-CEM leukemia, in the experiment on PC-3 prostate, with MOLT-4 leukemia, in the experiment with SNB-75 CNS, with HOP-62 NSCLC and in the experiment on DU-145 prostate was > 10 µM each time.

Consider `C=C(C)COC(=O)COCC(=O)OCC(=C)C`, for which the TGI with CCRF-CEM leukemia, in the experiment with PC-3 prostate, with HCT-116 colon, in the experiment with MOLT-4 leukemia, in the experiment with HS 578T breast and in the experiment on SNB-75 CNS was > 100 µM each time. The TGI with HOP-62 NSCLC and in the experiment on DU-145 prostate was > 100 µM in each case.

Turning to `O=Cc1ccc2[nH]c(=O)oc2c1`, the TGI with CCRF-CEM leukemia, in the experiment on PC-3 prostate, with HCT-116 colon, in the experiment on MOLT-4 leukemia, with HS 578T breast and in the experiment with HOP-62 NSCLC was > 100 µM in each case. Further, the TGI with SK-MEL-2 melanoma and in the experiment on DU-145 prostate was > 100 µM in each case.

For the compound `COc1ccc(NC(C)=O)cc1N1C(=O)/C(=C\c2cccc(Oc3ccccc3)c2)SC1c1ccccc1` (stereo unspecified), the TGI with CCRF-CEM leukemia was 67.2 µM; in the experiment on PC-3 prostate, > 100 µM; in the experiment with HCT-116 colon, 23.8 µM; with MOLT-4 leukemia, 82.6 µM; in the experiment on SNB-75 CNS it was > 100 µM; in the experiment with HOP-62 NSCLC, > 100 µM. The TGI with SK-MEL-2 melanoma and in the experiment on DU-145 prostate was > 100 µM throughout.

For `CC1CC/C(=C\c2ccc(F)cc2)C2=C1C(c1ccc(F)cc1)n1c(s/c(=C\c3ccc(Cl)cc3)c1=O)=N2` (stereo unspecified), the TGI in the experiment with CCRF-CEM leukemia, with PC-3 prostate, with HCT-116 colon, in the experiment with MOLT-4 leukemia, with HS 578T breast and with HOP-62 NSCLC was > 100 µM each time. The TGI in the experiment with SK-MEL-2 melanoma and in the experiment with DU-145 prostate was > 100 µM throughout.
